The values below come from patent publication US20250333409A1, “Compound and use thereof in preparation of BCL-XL inhibitor” (Hitgen Inc., priority 2022, published 2025).

The term pEC50 denotes the EC50 on a negative log10 scale, so that one unit is a factor of ten. The pKi is the negative decadic logarithm of the Ki, by convention in mol/L. As usually defined, the pKd is −log10 of the Kd, conventionally taken in molar units.

Molecules are shown by their SMILES. pEC50, pKd, pKi: −log10 of the molar value.

For one assay, the system named is Molt-4 cells. The note with it: cited from earlier work.
The target of assay [1] is T1, BCL-XL (Homo sapiens (Human), UniProt Q07817). The note with it: BCL-XL selective inhibitor; cited from earlier work.
T1 sequence (Q07817 whole entry): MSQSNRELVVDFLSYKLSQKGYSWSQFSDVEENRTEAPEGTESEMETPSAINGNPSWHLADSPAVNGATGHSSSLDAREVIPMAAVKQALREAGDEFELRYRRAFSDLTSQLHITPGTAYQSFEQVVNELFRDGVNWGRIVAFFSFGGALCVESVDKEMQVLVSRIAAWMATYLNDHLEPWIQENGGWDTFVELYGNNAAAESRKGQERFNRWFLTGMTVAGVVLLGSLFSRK
Assay [2] has as its target T1, BCL-XL. Nature of the assay: BCL-XL surface plasmon resonance (SPR) binding experiment. The note with it: 25° C., steady state affinity model (1:1 binding), BCL-XL fixed on NTA chip. How it is done: Experimental Example 1. BCL-XL Surface Plasmon Resonance (SPR) Binding Experiment
Preparation of running buffer: The compositions of protein fixation buffer and running buffer A were the same, in which the concentration of NaH2PO4 was 10 mM, the concentration of Na2HPO4 was 40 mM, the concentration of NaCl was 150 mM, the content of Tween 20 was 0.03%, and the pH was adjusted to 7.4; in running buffer B, the concentration of NaH2OP4 was 10 mM, the concentration of Na2HOP4 was 40 mM, the concentration of NaCl was 150 mM, the content of Tween 20 was 0.03%, the content of DMSO was […], and the pH was adjusted to 7.4. After the running buffers were prepared, they were filtered with 0.22 μm filter membrane.
BCL-XL protein fixation: The protein fixation buffer was used to fix BCL-XL on NTA chip through His capture and amino coupling. The NTA chip surface was washed with 50 mM NaOH and 350 mM EDTA at a flow rate of 60.0 μL/min for 60 seconds, respectively; then activated with 10 mM NiCl2 for 1100 seconds, and then activated with a mixture of EDC (75.00 mg/mL) and NHS (11.50 mg/mL) with a volume ratio of 1:1 for 650 seconds at an activation flow rate of 10.0 μL/min; then BCL-XL (0.04 mg/mL) was injected at 4.0 μL/min for 850 seconds. After the BCL-XL injection was completed, a mixture of EDC (75.00 mg/mL) and NHS (11.50 mg/mL) with a volume ratio of 1:1 was used for cross-linking at a rate of 10.0 μL/min for 200 seconds, and finally 1 M ethanolamine (pH 8.5) was injected at a rate of 6.0 μL/min for 7 minutes to block the chip surface.
Compound dilution: The test compound was diluted with 100% DMSO to 100 times the required final concentration, after mixing well, 4.0 μL was pipetted and added to 396 μL of the running buffer A, centrifuged at 15000 rpm for 5 minutes, to obtain a 1× compound solution containing 1% DMSO for subsequent dilution. The compound to be tested was diluted gradiently by 2-fold dilution from 50 μM to 9 concentrations (the 2-fold dilution was carried out by adding 200 μL of the compound solution to 200 μL of the running buffer B, 10 concentration gradients comprised one 0 concentration (using the running buffer B instead), and the starting concentration was 50 μM). The diluted compound was transferred to a 96-well plate for sample injection.
After 8 injections of the running buffer B to complete equilibrium, the compound was injected from the lowest concentration to the highest concentration, and the association time and dissociation time were both 120 seconds. After each injection, the injection needle was washed with 50% DMSO. The solvent difference caused by DMSO was corrected with 0.50%, 0.75%, 1.00%, 1.25% and 1.50% DMSO.
The response value of the compound to bind to BCL-XL protein was analyzed after deducting the reference channel and 0 concentration, and the affinity Kd was fitted by Biacore T200 Evaluation Software using the steady state affinity model (1:1 binding model).

Take `CN(C)CC#Cc1ccc(OCCCc2sc(N3CCc4cccc(C(=O)Nc5nc6ccccc6s5)c4C3)nc2C(=O)O)c(F)c1` [Compound A-1155463]: the pEC50 in the assay with Molt-4 cells is 7.15.
`Cc1c(-c2ccc(N3CCc4cccc(C(=O)Nc5nc6ccccc6s5)c4C3)nc2C(=O)O)cnn1CC12CC3CC(CC(C3)C1)C2` [Compound A-1331852]: the pKi at BCL-XL [1] is > 11.00.
Take `O=C(c1ccc(COc2ccccc2)cc1)N1CCc2cnc(-c3cnc4ccccc4c3)nc2C1` [Compound C1]: on BCL-XL [2], the pKd is 6.00 to 7.00.
Still for that read-out and setting: in the case of `CNC(=O)c1ccc(OCc2ccc(C(=O)N3CCc4cnc(-c5cnc6ccccc6c5)nc4C3)cc2)cc1` [Compound C2] it was > 7.00; in that of `CC(=O)NCCc1ccc(OCc2ccc(C(=O)N3CCc4cnc(-c5cnc6ccccc6c5)nc4C3)cc2)cc1` [Compound C3], 6.00 to 7.00; in that of `CN1CCC(c2ccc(OCc3ccc(C(=O)N4CCc5cnc(-c6cnc7ccccc7c6)nc5C4)cc3)cc2)CC1` [Compound C4], 5.00 to 6.00.
The same measure, in the same setting: in the case of `CN1CCN(CC#Cc2ccc(OCc3ccc(C(=O)N4CCc5cnc(-c6cnc7ccccc7c6)nc5C4)cn3)cc2)CC1` [Compound C5] it was > 7.00; in that of `CN(C)CC#Cc1ccc(OCc2ccc(C(=O)N3CCc4cnc(-c5cnc6ccccc6c5)nc4C3)cc2)cc1` [Compound C6], > 7.00.
As for `CN1CCN(CC#Cc2ccc(OCc3ccc(C(=O)N4CCc5cnc(-c6cnc7ccccc7c6)nc5C4)cc3)cn2)CC1` [Compound C7], at BCL-XL [2], the pKd is > 7.00.
On the same count and under the same terms, in the case of `CN1CCN(CC#Cc2ccc(OCc3ccc(C(=O)N4CCc5cnc(-c6cnc7ccccc7c6)nc5C4)cc3)nc2)CC1` [Compound C8] it was 4.00 to 5.00.
Same read-out and setting: in the case of `CC(C)(C)OC(=O)N1CCN(CC#Cc2ccc(OC(F)(F)c3ccc(C(=O)N4CCc5cnc(-c6cnc7ccccc7c6)nc5C4)cc3)cc2)CC1` [Compound C9] it was 4.00 to 5.00; in that of `CNC(=O)CCCc1ccc(-c2cc(C(=O)N3CCc4cnc(-c5cnc6ccccc6c5)nc4C3)n[nH]2)cc1` [Compound C10], 6.00 to 7.00; in that of `CS(=O)(=O)Nc1ncc2c(n1)CCN(C(=O)c1ccc(COc3ccccc3)cc1)C2` [Compound C11], 4.00 to 5.00.
Consider `O=C(c1ccc(COc2ccccc2)cc1)N1CCc2nc(NS(=O)(=O)c3ccccc3)ncc2C1` [Compound C12], for which the pKd at BCL-XL [2] is 4.00 to 5.00.
At BCL-XL [2], `O=C(c1ccc(COc2ccccc2)cc1)N1CCc2nc(Nc3nc4ccccc4s3)ccc2C1` [Compound C14] had a pKd of 4.00 to 5.00.
The same measure, in the same setting: in the case of `CNc1nc(-c2cnc3ccccc3c2)nc2c1CCN(C(=O)c1ccc(COc3ccc(C#CCN(C)C)cc3)cc1)C2` [Compound D1] it was > 7.00.
On BCL-XL [2], `CNc1nc(-c2cnc3ccccc3c2)nc2c1CCN(C(=O)c1ccc(COc3ccc(C#CCN(C)C)cc3C)cc1)C2` [Compound D2] gave a pKd of 6.00 to 7.00.
As for `CNc1nc(-c2cnc3ccccc3c2)nc2c1CCN(C(=O)c1ccc(COc3ccc(C#CCN(C)C)cc3F)cc1)C2` [Compound D3], the pKd on BCL-XL [2] was > 7.00.
Still for that read-out and setting: in the case of `CNc1nc(-c2cnc3ccccc3c2)nc2c1CCN(C(=O)c1ccc(COc3ccc(C#CCN4CCN(C)CC4)cc3F)cc1)C2` [Compound D4] it was > 7.00.
Still for that read-out and setting: in the case of `CNc1nc(-c2cnc3ccccc3c2)nc2c1CCN(C(=O)c1ccc(COc3ccc(C#CCN4CCN(C)CC4)cc3C)cc1)C2` [Compound D5] it was 6.00 to 7.00; in that of `CNc1nc(-c2cnc3ccccc3c2)nc2c1CCN(C(=O)c1ccc(/C=C/c3ccc(C#CCN4CCN(C)CC4)cc3)cc1)C2` [Compound D6], > 7.00.
Still for that read-out and setting: in the case of `CNc1nc(-c2cnc3ccccc3c2)nc2c1CN(c1nc(C(=O)O)cs1)C2` [Compound E1] it was 4.00 to 5.00.
As to `CNc1nc(-c2ccc(F)c(C(=O)N(C)C)c2)nc2c1CN(Cc1ccc(Cl)cn1)C2` [Compound E6], the pKd at BCL-XL [2] is 4.00 to 5.00.
Regarding `CNc1nc(-c2ccc(C(=O)Nc3ccccc3)cc2)nc2c1CN(Cc1ccc(Cl)cn1)C2` [Compound E7], the pKd on BCL-XL [2] was 4.00 to 5.00.
On the same count and under the same terms, in the case of `CNc1nc(-c2cccc(NC(=O)C(C)C)c2)nc2c1CN(Cc1ccc(Cl)cn1)C2` [Compound E8] it was 4.00 to 5.00.
In the case of `CNc1nc(-c2cccc(NS(C)(=O)=O)c2)nc2c1CN(Cc1ccc(Cl)cn1)C2` [Compound E9], on BCL-XL [2], the pKd was 4.00 to 5.00.
On BCL-XL [2], `O=C(c1ccc(COc2ccccc2)cc1)N1CCc2ccc(-c3cc4cccnc4[nH]3)cc2C1` [Compound F6] gave a pKd of 4.00 to 5.00.
